Data reported in ChEMBL document CHEMBL5260810, “Inhibition of bromodomain-containing protein 9 for the prevention of epigenetically-defined drug resistance” (Bioorg Med Chem Lett, 2017).
Calls of active or inactive are those of the source. No cut-off for these calls is given here.

Tests used:
Assay type in all cases: functional, cell-based
NCI-H1299 = assay: Antiproliferative activity against human NCI-H1299 cells assessed as reduction in colony formation up to 20 uM supplemented with fresh medium containing compound every 3 days for 9 days by MTT staining based clonogenic assay; settings: time 9.0 day
BXPC-3 = assay: Antiproliferative activity against human BxPC-3 cells assessed as reduction in colony formation up to 20 uM supplemented with fresh medium containing compound every 3 days for 9 days by MTT staining based clonogenic assay; settings: time 9.0 day
PANC-1 = assay: Antiproliferative activity against human PANC-1 cells assessed as reduction in colony formation up to 20 uM supplemented with fresh medium containing compound every 3 days for 9 days by MTT staining based clonogenic assay; settings: time 9.0 day
[1] = Cytotoxicity against human HCC1428 cells measured after 3 days; settings: HCC1428, 72 h
[2] = Cytotoxicity against human HNT-34 cells measured after 3 days; settings: HNT-34, 72 h
[3] = Cytotoxicity against human HCC630 cells measured after 3 days; settings: HCC630, 72 h
[4] = Cytotoxicity against human YMB-1 cells measured after 3 days; settings: YMB-1, 72 h
HCC1954 = assay: Antiproliferative activity against human HCC1954 cells assessed as reduction in colony formation at 1 uM supplemented with fresh medium containing compound every 3 days by MTT staining based assay; settings: time 9.0 day

SMILES	Activity (NCI-H1299)	Activity (BXPC-3)	Activity (PANC-1)	IC50 [1]	IC50 [2]	IC50 [3]	IC50 [4]	Activity (HCC1954)
C/C=C/Cn1cc(-c2ccc(C(C)(C)O)cc2OC)c2cc[nH]c2c1=O	inactive	inactive	inactive					
C/C=C/Cn1cc(-c2cc(OC)c(C(=O)N3CCOCC3)cc2OC)c2cc(C)[nH]c2c1=O				5 µM	5 µM	5 µM	5 µM	inactive
